Where “and” joins values, the source holds several entries; their conditions need not be identical. Equal entries are not always repeated. Entries after “also recorded” stand apart in the source; their conditions may differ. Where two headings read alike, the source gives them in different places.
What was measured:
[1] = test system: human lymphoblastic cell lines; assay: Induction of apoptosis in the cancer cell lines (Jurkat and Daudi together); type: cell-based; settings: read-out: concentration needed to induce a 50% apoptotic response
Procedure: (§1) Tumor cell lines (5×10^5 cells/well) and PBMC (1×10^6 cells/well) were cultured in 24-well plates in the presence or absence of various concentrations of digoxin or ouabain for 48 h. The cells were harvested, washed twice in PBS, and analyzed for induction of apoptosis by annexin V-FITC/propidium iodide (PI) method (BD Bioscience, Lincoln Park, N.J.) according to the manufacturer's instructions. Cells were washed once with 1× binding buffer and stained with annexin V-FITC (5 μL) and PI (10 μL) for 15 minutes in the dark. Apoptosis was determined by flow cytometric analyses on a FACScan (BD Biosciences, Lincoln Park, N.J.). Ten thousand cells were analyzed per sample. In experiments where the effect of PHA was studied, cells were seeded accordingly in a 24-well plate and stimulated with PHA (1 μg/mL) for a minimum of 2 hours before treatment with the indicated concentrations of ouabain or digoxin. As a positive control for apoptosis, cells were exposed to ultra violet irradiation for […] and apoptosis was analyzed according to the method described above.

[2] = test system: caspase-3 activity in K 562 cells; assay: DEVD-dependent caspase-3 activity, K 562; type: cell-based, human; settings: 100 nM, 12 h
Procedure: (§2) Measurement of DEVD-dependent caspase-3 activity is a measure of induction of apoptosis, irrespective of the apoptotic pathway activated. The effect of digoxin (100 nM) to induce activation of caspase-3 activity in these tumor cell lines and as well as normal PBMC was examined. Tumor cells (1×10^7 cell/mL) and PBMC (1×10^7 cells/mL) were exposed to ultraviolet irradiation or digoxin (100 nM) for 12 h. The cells were then analyzed for caspase-3 activation using caspase-3 activation assay kit following the manufacturer's instructions.
(§3) Caspase-3 activity was measured using a caspase-3 assay kit (Sigma-Aldrich Co. St Louis, Mo.). Briefly, tumor cell lines (1×10^7 cells/mL), and PBMC (1×10^7 cells/mL) were cultured in the presence or absence of the indicated concentration of digoxin. Cells were harvested by centrifugation and washed once with PBS. Cells were lysed with lysis buffer (30 mM Tris-HCl, pH 7.5, 150 mM NaCl, 1% Triton X-100, and 10% glycerol) and were centrifuged to remove cell debris, Caspase 3 activity was assayed in the cell lysate according to the manufacturer's instructions. The colorimetric assay is based on spectrophotometric detection of chromophore pNA at 405 nm after cleavage from labelled substrate DEVD-pNA. The level of caspase 3 activity is interpolated from a calibration curve.

K 562 cells = assay: Induction of apoptosis, annexin V-FITC/propidium iodide flow cytometry, K 562; type: cell-based, human; settings: increasing concentrations, 48 h
Procedure: (§4) It was determined that the cardiac glycosides (e.g., digoxin and ouabain) selectively induce apoptosis in cancer cells relative to normal non-transformed cells. Through the experiments, some cells were exposed to ultraviolet irradiation as a positive control for induction of apoptosis, whereas cells cultured under normal conditions (95% […]/5% CO2 at 37° C.) acted as the negative control (see Methods). The percentage of counted cells in the lower and upper right hand quadrants are indicative of cells in early and late apoptosis, respectively. The viable cells are at the lower left quadrant. The figures that follow are summaries of data stemming from analysis of percent of cell count undergoing apoptosis as measured in FIG. 1. […]
(§5) Tumor cell lines (5×10^5 cells/well) and PBMC (1×10^6 cells/well) were cultured in 24-well plates in the presence or absence of various concentrations of digoxin or ouabain for 48 h. The cells were harvested, washed twice in PBS, and analyzed for induction of apoptosis by annexin V-FITC/propidium iodide (PI) method (BD Bioscience, Lincoln Park, N.J.) according to the manufacturer's instructions. […] Apoptosis was determined by flow cytometric analyses on a FACScan (BD Biosciences, Lincoln Park, N.J.). Ten thousand cells were analyzed per sample. […]

Jurkat cells [3] = assay: Apoptosis after PHA stimulation, Jurkat; type: cell-based, human; settings: PHA 1 μg/mL, digoxin 10 nM and 100 nM, 48 h
Procedure: as §1

PBMC = assay: Apoptosis after PHA stimulation, PBMC; type: cell-based, human; settings: PHA 1 μg/mL, digoxin 10 nM-100 nM, 48 h
Procedure: as §1

[4] = test system: caspase-3 activity in Daudi cells; assay: DEVD-dependent caspase-3 activity, Daudi; type: cell-based, human; settings: 100 nM, 12 h
Procedure: as §2, §3

Daudi cells = assay: Induction of apoptosis, annexin V-FITC/propidium iodide flow cytometry, Daudi; type: cell-based, human; settings: for highest percentage of apoptosis / increase in apoptosis vs untreated control: Daudi cells; for highest percentage of apoptosis: 500 nM, n=4; for increase in apoptosis vs untreated control: increasing concentration; for IC50: Homo sapiens, Daudi
Procedure: (§6) It was determined that the cardiac glycosides (e.g., digoxin and ouabain) selectively induce apoptosis in cancer cells relative to normal non-transformed cells. Through the experiments, some cells were exposed to ultraviolet irradiation as a positive control for induction of apoptosis, whereas cells cultured under normal conditions (95% […]/5% CO2 at 37° C.) acted as the negative control (see Methods). The percentage of counted cells in the lower and upper right hand quadrants are indicative of cells in early and late apoptosis, respectively. The viable cells are at the lower left quadrant. The figures that follow are summaries of data stemming from analysis of percent of cell count undergoing apoptosis as measured in FIG. 1.
(§7) Cell lines used in this study included: Jurkat E6-1, an acute human T-lymphoblastic leukemia cell line generated from a person; Daudi, a human B-lymphoblastoid line derived from Burkitt's lymphoma patient and K 562 derived from a human chronic myelogenous leukemia cell line. All cell lines were maintained in RPMI 1640 medium (Gibco Laboratories, Grand Island, N.Y.) supplemented with 10% fetal calf serum (FCS), 10 mM HEPES, 2 mM glutamine, 50 IU/mL penicillin, 50 μg/mL streptomycin, 0.1 mM non-essential amino acids and 1 mM sodium pyruvate and 0.5 μg/mL amphotericin B. Cells were cultured in a 5% CO2 atmosphere in a thermostatically maintained incubator (37° C.) in standard cell culture flasks. Cell cultures were split every 2-3 days and passage number noted.
as §1

[5] = target: T1, porcine cerebral cortex Na,K-ATPase; type: biochemical
T1 construct: other: 50% response relative to the m
From the text: In the current study, the sensitivity of cardiac glycosides on induction of apoptosis in lymphoblastic cancer cells was examined. The efficacy of digoxin and ouabain in inducing apoptosis in these cell lines was compared with NKA catalytic inhibition activity using porcine cerebral cortex (Table 1). The porcine cerebral cortex (PCC) is a model system known to express the three isoforms of NKA consisting of the three different alpha subunits (α1, α2 and α3) (Rose et al., Clin Chem, 40, 1674-1685 (1994)). The alpha subunit of the NKA contains the binding site of the cardiac glycosides, and like most cationic transporter proteins, the beta subunit act as chaperon, stabilizing the correct assembly of the alpha subunit and facilitating the delivery of the protein to the plasma membrane (Blanco et al., Am J Physiol, 275 (Renal Physiol. 44), F633-F650 (1998)).
In order to compare the concentrations of digoxin or ouabain that affect the induction of apoptosis with those that inhibit the sodium pump, the inhibitory potency of digoxin and ouabain on porcine cerebral cortex (PCC) Na.,K-ATPase catalytic activity was examined.
The values were calculated as 50% response relative to the maximum NKA activity on the PCC or maximum apoptosis on Jurkat and Daudi cells within the concentration ranges tested.
Inhibition of sodium pump catalytic activity by cardiac glycosides was measured by the release of phosphate upon hydrolysis of ATP (Qazzaz et al., Endocrinology, 141, 3200-3209 (2000)).

[6] = Kometiani et al. 2005; cited from earlier work
[7] = test system: caspase-3 activity in Jurkat cells; assay: DEVD-dependent caspase-3 activity, Jurkat; type: cell-based, human; settings: 100 nM, 12 h
Procedure: as §2, §3

Jurkat cells [8] = assay: Induction of apoptosis, annexin V-FITC/propidium iodide flow cytometry, Jurkat; type: cell-based, human; settings: for IC50: Homo sapiens, Jurkat; for highest percentage of apoptosis / increase in apoptosis vs untreated control: Jurkat cells; for highest percentage of apoptosis: n=4; for increase in apoptosis vs untreated control: increasing concentration 10 nM-500 nM
Procedure: as §6, §7, §1

[9] = test system: peripheral blood mononuclear cells (PBMC); assay: Induction of apoptosis, annexin V-FITC/propidium iodide flow cytometry, PBMC; type: cell-based, human; settings: increasing concentration, 48 h
Procedure: as §4, §5

[10] = test system: caspase-3 activity in PBMC; assay: DEVD-dependent caspase-3 activity, PBMC; type: cell-based, human; settings: 100 nM, 12 h
Procedure: as §2, §3

[11] = 50% response relative to the maximum NKA activity on the PCC, read-out: IC50, Inhibitory Potency on Porcine cerebral cortex (PCC) NKA catalytic activity
[12] = range of the IC50, read-out: Range of IC50, Inhibitory Potency on PCC NKA catalytic activity
[13] = 50% response relative to maximum apoptosis within the concentration ranges tested, 48 h, read-out: IC50, Induction of apoptosis on acute T-cell lymphoblastic leukemic cells (Jurkat)
[14] = range of the IC50, read-out: Ranges of IC50, Induction of apoptosis on Jurkat

Compound | increase in apoptosis vs untreated control (K 562 cells) | highest percentage of apoptosis (Daudi cells; 48 h) | increase in apoptosis vs untreated control (Daudi cells; 48 h) | IC50 [5, 11] | IC50 [5, 12] | IC50 (Jurkat cells [8]; [13]) | IC50 (Jurkat cells [8]; [14]) | increase in apoptosis vs untreated control (Jurkat cells [8]; 48 h) | increase in apoptosis vs untreated control [9] | also measured
C[C@H]1O[C@@H](O[C@H]2[C@@H](O)C[C@H](O[C@H]3[C@@H](O)C[C@H](O[C@H]4CC[C@@]5(C)[C@H](CC[C@@H]6[C@@H]5C[C@@H](O)[C@]5(C)[C@@H](C7=CC(=O)OC7)CC[C@]65O)C4)O[C@@H]3C)O[C@@H]2C)C[C@H](O)[C@@H]1O [Digoxin, digoxin] | neither digoxin nor ouabain significantly induced apoptosis; also recorded: did not significantly (P>0.05) lead to increases in apoptosis | 83.2±7.3% and 83.2%±7.3% | significantly (P<0.05) led to increase in apoptosis | 910 nM | 820 to 1010 nM | 24 nM | 11 to 56 nM | significantly (P<0.05) led to increases in apoptosis | neither digoxin nor ouabain significantly induced apoptosis; also recorded: did not significantly (P>0.05) lead to increase in apoptosis | EC50 [1]: 20 to 40 nM; caspase-3 activity relative to the untreated controls [2]: no such increases; percent of apoptosis in the presence of PHA (Jurkat cells [3]): synergistically increased; percent of apoptosis in the presence of PHA (Jurkat cells [3]; listed as digoxin): synergistically induced apoptosis; also recorded: synergistically increased; percent of apoptosis in the presence of PHA (PBMC): No such effect; percent of apoptosis in the presence of PHA (PBMC; listed as digoxin): No such synergistic effect; also recorded: no such synergistic increase; caspase-3 activity relative to the untreated controls [4]: 7 fold; IC50 (Daudi cells; 48 h, read-out: IC50, Induction of apoptosis on B-cell Burkitt's lymphoma cells (Daudi)): 48 nM; IC50 (Daudi cells; read-out: Ranges of IC50, Induction of apoptosis on Daudi): 35 to 65 nM; therapeutic concentrations in blood [6]: approximately 2 nM; caspase-3 activity relative to the untreated controls [7]: 8 fold; highest percentage of apoptosis (Jurkat cells [8]; 500 nM, 48 h): 50.2±4.5% and 50.2%±4.5%; caspase-3 activity relative to the untreated controls [10]: no such increases
C[C@@H]1O[C@@H](O[C@H]2C[C@@H](O)[C@]3(CO)[C@H]4[C@H](O)C[C@]5(C)[C@@H](C6=CC(=O)OC6)CC[C@]5(O)[C@@H]4CC[C@]3(O)C2)[C@H](O)[C@H](O)[C@H]1O [Ouabain, ouabain] | neither digoxin nor ouabain significantly induced apoptosis; also recorded: did not significantly (P>0.05) lead to increases in apoptosis | 81.1±6.1% | significantly (P<0.05) led to increase in apoptosis | 600 nM | 550 to 650 nM | 26 nM | 19 to 48 nM | significantly (P<0.05) led to increases in apoptosis | neither digoxin nor ouabain significantly induced apoptosis; also recorded: did not significantly (P>0.05) lead to increase in apoptosis | EC50 ([1]; based on the maximum apoptosis at 500 nM, for each of the cancer cell lines): 20 to 40 nM; IC50 (Daudi cells; 50% response relative to maximum apoptosis within the concentration ranges tested, 48 h, read-out: IC50, Induction of apoptosis on B-cell Burkitt's lymphoma cells (Daudi)): 40 nM; IC50 (Daudi cells; range of the IC50, read-out: Ranges of IC50, Induction of apoptosis on Daudi): 36 to 56 nM; highest percentage of apoptosis (Jurkat cells [8]; 100 nM, 48 h): 47.6±3.9% and 47.6±5.6%
